Target: T1, Human M4 (Homo sapiens, UniProt P08173)
T1 construct: expressed in transfected cells; host or cells: CHO-K1 (American Type Culture Collection), stably expressing M4 and Gqi5
T1 sequence (P08173 1-479): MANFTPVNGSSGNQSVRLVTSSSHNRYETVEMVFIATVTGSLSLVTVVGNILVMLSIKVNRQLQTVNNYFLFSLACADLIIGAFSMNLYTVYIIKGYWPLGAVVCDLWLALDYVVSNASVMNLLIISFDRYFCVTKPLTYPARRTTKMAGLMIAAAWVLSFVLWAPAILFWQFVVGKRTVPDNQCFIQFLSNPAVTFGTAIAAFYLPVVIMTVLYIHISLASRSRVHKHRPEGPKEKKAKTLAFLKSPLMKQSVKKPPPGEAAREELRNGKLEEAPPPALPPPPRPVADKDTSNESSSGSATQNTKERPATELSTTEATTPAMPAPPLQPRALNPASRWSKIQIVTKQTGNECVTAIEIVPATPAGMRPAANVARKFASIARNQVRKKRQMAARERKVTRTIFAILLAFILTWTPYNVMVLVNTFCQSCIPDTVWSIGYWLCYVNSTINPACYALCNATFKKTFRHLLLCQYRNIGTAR
Test: mAChR M4 cell-based functional assay (calcium flux, potentiation of EC20 acetylcholine response)
Details: M4/Gqi5/CHO-K1 cells; for Emax at 30 µM: % ACh maximum at 30 μM; for EC50: PAM activity as increase in EC20 acetylcholine response
Description: Human M4 cDNA, along with the chimeric G protein Gqi5, were transfected into Chinese hamster ovary (CHO-K1) cells purchased from the American Type Culture Collection using Lipofectamine2000. M4/Gqi5/CHO cells were grown in Ham's F-12 medium containing 10% heat-inactivated fetal bovine serum (FBS), 20 mM HEPES, 500 μg/mL G418 sulfate, and 200 μg/mL Hygromycin B.
For high throughput measurement of agonist-evoked increases in intracellular calcium, CHO-K1 cells stably expressing muscarinic receptors were plated in growth medium lacking G418 and hygromycin at 15,000 cells/20 μL/well in Greiner 384-well black-walled, tissue culture (TC)-treated, clear-bottom plates (VWR). Cells were incubated overnight at 37° C. and 5% CO2. The next day, cells were washed using an ELX 405 (BioTek) with assay buffer; the final volume was then aspirated to 20 μL. Next, 20 μL of a 2.3 μM stock of Fluo-4/acetoxymethyl ester (Invitrogen, Carlsbad, Calif.), prepared as a 2.3 mM stock in DMSO and mixed in a 1:1 ratio with 10% (w/v) Pluronic F-127 and diluted in assay buffer, was added to the wells and the cell plates were incubated for 50 min at 37° C. and 5% CO2. Dye was removed by washing with the ELX 405 and the final volume was aspirated to 20 μL. Compound master plates were formatted in an 11 point concentration-response curve (CRC) format (1:3 dilutions) in 100% DMSO with a starting concentration of 10 mM using a BRAVO liquid handler (Agilent). Test compound CRCs were then transferred to daughter plates (240 nL) using the Echo acoustic plate reformatter (Labcyte, Sunnyvale, Calif.) and then diluted into assay buffer (40 μL) to a 2× stock using a Thermo Fisher Combi (Thermo Fisher Scientific, Waltham, Mass.).
Calcium flux was measured using the Functional Drug Screening System (FDSS) 6000 or 7000 (Hamamatsu Corporation, Tokyo, Japan) as an increase in the fluorescent static ratio. Compounds were applied to cells (20 μL, 2×) using the automated system of the FDSS at 2-4 seconds into the protocol and the data were collected at 1 Hz. At approximately 144 s, […] an EC20 concentration of the muscarinic receptor agonist acetylcholine was added (5×), followed by the addition of 12 μL of an EC80 concentration of acetylcholine at approximately the 230 s time point (5×). Agonist activity was analyzed as a concentration-dependent increase in calcium mobilization upon compound addition. Positive allosteric modulator activity was analyzed as a concentration-dependent increase in the EC20 acetylcholine response. Antagonist activity was analyzed as a concentration-dependent decrease in the EC80 acetylcholine response. Concentration-response curves were generated using a four-parameter logistical equation in XLFit curve fitting software (IDBS, Bridgewater, N.J.) for Excel (Microsoft, Redmond, Wash.) or Prism (GraphPad Software, Inc., San Diego, Calif.) or the Domatics software platform (Domatics, Bishop's Stortford, UK).
Compounds were synthesized as described above. Activity (EC50 and Emax) was determined in the mAChR M4 cell-based functional assay as described above and the data are shown in Table 2. The compound numbers correspond to the compound numbers used in Table 1.

Emax at 30 µM	EC50	SMILES
82.3%	90 nM	Cc1c2c(N)c(C(=O)NC3Cc4ccccc4C3)sc2nn2cnnc12 [Compound 3, 8-amino-N-(2,3-dihydro-1H-inden-2-yl)-9-methylthieno[3,2-e][1,2,4]triazolo[4,3-b]pyridazine-7-carboxamide]
74.2%	290 nM	Cc1c2c(N)c(C(=O)NC3CC3)sc2nn2cnnc12 [Compound 5, 8-amino-N-cyclopropyl-9-methylthieno[3,2-e][1,2,4]triazolo[4,3-b]pyridazine-7-carboxamide]
42.5%	7000 nM	Cc1c2c(N)c(C(=O)NC3CCN(c4ccccc4)CC3)sc2nn2cnnc12 [Compound 7, 8-amino-9-methyl-N-(1-phenylpiperidin-4-yl)thieno[3,2-e][1,2,4]triazolo[4,3-b]pyridazine-7-carboxamide]

The next lines start with the molecule.

SMILES	Emax at 30 µM	EC50
Cc1c2c(N)c(C(=O)N3CCC(c4ccccc4)C3)sc2nn2cnnc12 (stereo not drawn) [Compound 1, (8-amino-9-methylthieno[3,2-e][1,2,4]triazolo[4,3-b]pyridazin-7-yl)(3-phenylpyrrolidin-1-yl)methanone]	38.8%	3330 nM
Cc1c2c(N)c(C(=O)N3CCCC3)sc2nn2cnnc12 [Compound 2, (8-amino-9-methylthieno[3,2-e][1,2,4]triazolo[4,3-b]pyridazin-7-yl)(pyrrolidin-1-yl)methanone]	72.2%	9670 nM
COc1ccc(CNC(=O)c2sc3nn4cnnc4c(C)c3c2N)cc1 [Compound 4, 8-amino-N-(4-methoxybenzyl)-9-methylthieno[3,2-e][1,2,4]triazolo[4,3-b]pyridazine-7-carboxamide]	80.6%	670 nM
Cc1c2c(N)c(C(=O)NC3CCC3)sc2nn2cnnc12 [Compound 6, 8-amino-N-cyclobutyl-9-methylthieno[3,2-e][1,2,4]triazolo[4,3-b]pyridazine-7-carboxamide]	71.8%	890 nM
Cc1c2c(N)c(C(=O)NCc3cccc(F)c3)sc2nn2cnnc12 [Compound 8, 8-amino-N-(3-fluorobenzyl)-9-methylthieno[3,2-e][1,2,4]triazolo[4,3-b]pyridazine-7-carboxamide]	78%	370 nM
Cc1c2c(N)c(C(=O)NCc3ccc(F)cc3)sc2nn2cnnc12 [Compound 9, 8-amino-N-(4-fluorobenzyl)-9-methylthieno[3,2-e][1,2,4]triazolo[4,3-b]pyridazine-7-carboxamide]	76.3%	1120 nM

— patent publication US10189857B2, “Positive allosteric modulators of the muscarinic acetylcholine receptor M4” (Vanderbilt University, priority 2016, dated 2019)
